Test results as given in publication PMC6547740, “Potent and specific MTH1 inhibitors targeting gastric cancer” (Cell Death & Disease, 2019).

Assays:
MGC-803 cells [1] = experiment: Colony formation assay, MGC-803; assay type: cell-based, human; details: MGC-803, 7 days treatment, compared with DMSO or MI-929
Description: (§1) The day before treatment, cells were seeded into six-well plates at a concentration of 1 × 10^3 cells per well, and then the media were replaced with fresh media containing serial concentrations of candidate compounds. After 7 days of treatment, the cells were fixed with 75% ethanol, stained with 0.1% crystal violet solution and captured by the microscopy (Leica). After that, the crystal violet crystals were dissolved by adding methanol. The absorbance at 595 nm was measured by a BioTek micro plate reader. In the end, the data were analyzed using the GraphPad Prism 5 software.

HGC-27 cells [2] = experiment: Colony formation assay, HGC-27; assay type: cell-based, human; details: HGC-27, 7 days treatment, compared with DMSO or MI-929
Description: as §1

MTH1 [3] = target: T1, MTH1 (Homo sapiens, UniProt P36639); experiment: MTH1 recombinant protein activity / inhibitor screening (malachite green); assay type: biochemical; design: His-tag; made in house; host or cells: E. coli BL21(DE3); details: 5 nM recombinant MTH1, dGTP substrate, absorbance 630 nm; read-out: IC50 (MTH1 inhibition)
Description: On the basis of the ability of MTH1 in converting dGTP to dGMP and pyrophosphate, and the latter can then be hydrolyzed to […] by inorganic pyrophosphatase, the MTH1 activity was designed to measure the product of […], after its reaction with malachite green and ammonium molybdate(Fig. 2l), the green associated complex was measured at 630 nm by PerkinElmer Envision microplate reader.
Firstly, the assay buffer (100 mM Tris-acetate at pH 8.0, 40 mM NaCl, 10 mM Mg-acetate, 0.005% Tween 20 and 1 mM DTT) was added into a 96-well plate. Then, 5 nM recombinant human MTH1, […] dGTP and 0.2U/ml […] were added in sequence. After 60 min reaction, the mixture of 0.45 mg/mL malachite green and 4.2% ammonium molybdate in proportion of 3:1 were added. Then, the plates were incubated and shaken at room temperature for another 60 min. The absorbance was measured at 630 nm using the PerkinElmer Envision micro plate reader.

MTH1 [4] = target: T1, MTH1; experiment: Cellular thermal shift assay (CETSA), MTH1; assay type: binding; design: endogenous in cells; host or cells: MGC-803 (human gastric cancer cell line); details: MGC-803 cells, 50 µM compound, heated 10 min from 43 to 61 °C, western blot
Description: Cellular thermal shift assay (CETSA), also known as the target engagement assay was one-way to detect the intracellular interaction ability of compounds with its specific target. Firstly, cells were seeded into T75 culture flasks and cultured overnight. Then, the cells were treated with cell media containing 1‰ DMSO as blank control and candidate compounds for 3–5 h. Next, the cells were collected by centrifugation and resuspended by PBS, then the cells were aliquoted into 7 PCR tubes and heated using PCR instrument for 10 min from 43 to 61 °C. After that, cells were lysed using liquid nitrogen and three repeated cycles of freeze-thawing. Then, samples were centrifuged at 12,000 × g for 20 min at 4 °C. Supernatants were denatured at 100 °C for 10 min and kept at −20 °C until Western Blot analysis.

L02 cells = experiment: MTT cell viability, L02; assay type: cell-based; details: Homo sapiens, normal liver cell line, 72 h
Description: (§2) The cell viability was determined by 3-(4,5-dimethylthiazol-2-yl)-2,5-diphenyltetrazolium bromide (MTT) assay, according to the manufacturer’s instructions. 1 day before treatment, cells were seeded into 96-well plates at a concentration of 2–5 × 10^3 cells per well, followed by treatment with fresh medium containing serial dilutions of candidate compounds for 48 or 72 h, 20 μL of MTT solution (5 mg/mL in PBS) was then added to each well. After treatment, the plates were incubated at 37 °C for another 4 h. Subsequently, the MTT solution was removed and 150 μL of DMSO was added to each well for 10 min, and then the plates were shaken to dissolve the dark blue crystal (formazan), the absorbance was detected at 570 nm using a BioTek microplate reader. The data were analyzed using SPSS 20 software.

HL-7702 cells = experiment: MTT cell viability, HL-7702; assay type: cell-based; details: Homo sapiens, L02, normal liver cell line, 72 h
Description: as §2

Het-1A cells = experiment: MTT cell viability, Het-1A; assay type: cell-based; details: Homo sapiens, normal esophageal epithelial cell line, 72 h
Description: as §2

GES-1 cells = experiment: MTT cell viability, GES-1; assay type: cell-based; details: Homo sapiens, GES1, normal gastric epithelial cell line, 72 h
Description: as §2

SMMC-7721 cells = experiment: MTT cell viability, SMMC-7721; assay type: cell-based; details: Homo sapiens, liver cancer cell line, 72 h
Description: as §2

ZIP177 cells = experiment: MTT cell viability, ZIP177; assay type: cell-based; details: Homo sapiens, liver cancer cell line, 72 h
Description: as §2

HepG2 cells = experiment: MTT cell viability, HepG2; assay type: cell-based; details: Homo sapiens, liver cancer cell line, 72 h
Description: as §2

EC109 cells = experiment: MTT cell viability, EC109; assay type: cell-based; details: Homo sapiens, ECa-109, esophageal cancer cell line, 72 h
Description: as §2

EC9706 cells = experiment: MTT cell viability, EC9706; assay type: cell-based; details: Homo sapiens, esophageal cancer cell line, 72 h
Description: as §2

KYSE-450 cells = experiment: MTT cell viability, KYSE-450; assay type: cell-based; details: Homo sapiens, esophageal cancer cell line, 72 h
Description: as §2

TE-1 cells = experiment: MTT cell viability, TE-1; assay type: cell-based; details: Homo sapiens, 72 h
Description: as §2

MGC-803 cells [5] = experiment: MTT cell viability, MGC-803; assay type: cell-based; details: Homo sapiens, gastric cancer cell line, 72 h
Description: as §2

HGC-27 cells [6] = experiment: MTT cell viability, HGC-27; assay type: cell-based; details: Homo sapiens, gastric cancer cell line, 72 h
Description: as §2

SGC-7901 cells = experiment: MTT cell viability, SGC-7901; assay type: cell-based; details: Homo sapiens, gastric cancer cell line, 72 h
Description: as §2

MKN45 cells = experiment: MTT cell viability, MKN45; assay type: cell-based; details: Homo sapiens, MKN-45, gastric cancer cell line, 72 h
Description: as §2

pc9 cells = experiment: MTT cell viability, pc9; assay type: cell-based; details: Homo sapiens, PC-9, 72 h
Description: as §2

H1975 cells = experiment: MTT cell viability, H1975; assay type: cell-based; details: Homo sapiens, NCI-H1975, 72 h
Description: as §2

MCF-7 cells = experiment: MTT cell viability, MCF-7; assay type: cell-based; details: Homo sapiens, MCF7, breast cancer cell line, 72 h
Description: as §2

B16-F10 cells = experiment: MTT cell viability, B16-F10; assay type: cell-based; details: Mus musculus, 72 h
Description: as §2

C[C@H](Oc1cc(-c2cnn(C3CCNCC3)c2)cnc1N)c1c(Cl)ccc(F)c1Cl [(S)-crizotinib]
colony formation (MGC-803 cells [1]): smaller and fewer colonies
colony formation (HGC-27 cells [2]): smaller and fewer colonies

Cc1ccc(Nc2nc(SCc3cn(CC(=O)NC(=O)Nc4ccccn4)nn3)nc(-c3ccc(Br)cc3)c2C#N)cc1 [MI-401, 2-(4-((4-(4-bromophenyl)-5-cyano-6-(p-tolylamino)pyrimidin-2-yl)thiomethyl)-1H-1,2,3-triazol-1-yl)-N-(pyridin-2-ylcarbamoyl)acetamide]
melting point: 155 to 156 °C
IC50 (MTH1 [3]): 461.3 ± 2.67 nM
temperature of MTH1 degradation (MTH1 [4]): 49 °C

COc1ccccc1NC(=O)NC(=O)CSC(=S)N1CCCC1 [MI-929]
IC50 (L02 cells): > 50 µM
IC50 (HL-7702 cells): > 50 µM
IC50 (Het-1A cells): > 50 µM
IC50 (GES-1 cells): > 50 µM
IC50 (SMMC-7721 cells): > 50 µM
IC50 (ZIP177 cells): > 50 µM
IC50 (HepG2 cells): > 50 µM
IC50 (EC109 cells): > 50 µM
IC50 (EC9706 cells): > 50 µM
IC50 (KYSE-450 cells): > 50 µM
IC50 (TE-1 cells): > 50 µM
IC50 (MGC-803 cells [5]): > 50 µM
IC50 (HGC-27 cells [6]): > 50 µM
IC50 (SGC-7901 cells): > 50 µM
IC50 (MKN45 cells): > 50 µM
IC50 (pc9 cells): > 50 µM
IC50 (H1975 cells): > 50 µM
IC50 (MCF-7 cells): > 50 µM
IC50 (B16-F10 cells): > 50 µM
IC50 (MTH1 [3]): > 50000 nM
temperature of MTH1 degradation (MTH1 [4]): 49 °C

Nc1nc(NC2CC2)cc(-c2cccc(Cl)c2Cl)n1 [TH588]
colony formation (MGC-803 cells [1]): smaller and fewer colonies
colony formation (HGC-27 cells [2]): smaller and fewer colonies
